# Laboratory results as given in US7659400B2, “Radiolabelled benzamide analogues, their synthesis and use in diagnostic imaging” (Washington University, priority 2003, dated 2010).
# What was measured:
# [1] = biological target: σ1 receptors (Cavia porcellus, UniProt Q60492)
# Method: In these assays, the novel sigma ligands were dissolved in N,N-dimethylformamide (DMF), DMSO or ethanol, and then diluted in 50 mM Tris-HCl buffer containing 150 mM NaCl and 100 mM EDTA at pH 7.4 prior to performing the σ1 and σ2 receptor binding assays. […] The samples were harvested and filtered rapidly through a 96-well fiber glass filter plate (millipore, Billerica, Mass.) that had been presoaked with 100 μL of 50 mM Tris-HCl buffer at pH 8.0 for 1 h.
# The Ki values were determine from Scatchard plots.
# [2] = biological target: T1, σ2 receptors (Rattus norvegicus, UniProt Q5U3Y7); assay: σ2 receptor binding assay, [^3H]DTG in the presence of (+)-pentazocine, rat liver membrane homogenates; details: for σ1:σ2 Ratio: ratio of Ki values
# T1 construct: conducted using rat liver membrane homogenates; from tissue; host or cells: rat liver membrane homogenates
# T1 sequence (Q5U3Y7 1-176): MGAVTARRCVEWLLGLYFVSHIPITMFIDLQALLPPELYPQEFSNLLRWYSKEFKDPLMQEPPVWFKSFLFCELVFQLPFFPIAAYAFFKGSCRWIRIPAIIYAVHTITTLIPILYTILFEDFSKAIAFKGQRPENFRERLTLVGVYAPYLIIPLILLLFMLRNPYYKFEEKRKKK
# Method: The incubation time was 120 min at room temperature. […] All other procedures were identical to those described for the σ1 receptor binding assay above.
# σ1 receptors, sequence (Q60492 whole entry): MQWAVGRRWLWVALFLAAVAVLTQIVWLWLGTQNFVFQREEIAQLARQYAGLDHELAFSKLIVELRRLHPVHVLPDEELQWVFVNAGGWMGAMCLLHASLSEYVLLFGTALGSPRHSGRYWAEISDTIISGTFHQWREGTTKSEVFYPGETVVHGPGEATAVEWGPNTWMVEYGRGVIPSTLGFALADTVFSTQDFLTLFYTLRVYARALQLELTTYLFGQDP
Compound,Ki [1],Ki [2],σ1:σ2 Ratio [2]
"COc1cc2c(cc1OC)CN(CCNC(=O)c1cc(C)ccc1OCCF)CC2 [compound 3a, [N-(6,7-dimethoxy-3,4-dihydro-1H-isoquinolin-2-yl)-ethyl]-2-(2-fluoro-ethoxy)-5-methyl benzamide]",22800 nM,102 ± 4 nM,222
"COc1cc2c(cc1OC)CN(CCCCNC(=O)c1cc(Br)ccc1OCCF)CC2 [compound 3d, N-[4-(6,7-dimethoxy-3,4-dihydro-1H-isoquinolin-2-yl)-butyl]-2-(2-fluoro-ethoxy)-5-bromo-benzamide]",1080 nM,0.65 ± 0.22 nM,"1,656"
"COc1cc2c(cc1OC)CN(CCCCNC(=O)c1cc(I)ccc1OCCF)CC2 [compound 3e, N-[4-(6,7-dimethoxy-3,4-dihydro-1H-isoquinolin-2-yl)-butyl]-2-(2-fluoro-ethoxy)-5-iodo-benzamide]",1300 nM,,
COc1cc2c(cc1OC)CN(CCCCNC(=O)c1cc(I)cc(OC)c1OCCF)CC2 [compound 3f],2150 nM,0.26 ± 0.07 nM,"8,190"
